Assay results reported in ChEMBL document CHEMBL1129417, “Glucose transport-enhancing and hypoglycemic activity of 2-methyl-2-phenoxy-3-phenylpropanoic acids” (1996).

Assays:
Mus musculus [1] = assay: compound was tested in vivo for hypoglycemic activity expressed as Glucose lowering relative to positive control in 6-8 week old C57BL/6J ob/ob mouse at 10 uM dose.; assay type: functional
Rattus norvegicus [2] = species on record: Rattus norvegicus; assay: Inhibition of gluconeogenesis in rat; assay type: functional
Mus musculus [3] = assay: compound was tested in vivo for hypoglycemic activity expressed as Glucose lowering relative to positive control in 6-8 week old C57BL/6J ob/ob mouse at 5 uM dose.; assay type: functional
Mus musculus [4] = assay: compound was tested in vivo for hypoglycemic activity expressed as Glucose lowering relative to positive control in 6-8 week old C57BL/6J ob/ob mouse at 1 uM dose.; assay type: functional
3T3-L1 [5] = assay: In vitro measurements 2-Deoxyglucose (2DG) uptake in vehicle treated 3T3-L1 adipocytes at 100 uM dose.; assay type: functional
Mus musculus [6] = assay: In vivo hypoglycemic activity expressed as glucose lowering relative to positive control in 6-8 week old C57BL/6J ob/ob mouse at 10 mg/kg; assay type: functional
L6 = assay: compound was evaluated for their acute effects in vitro by measuring 2-Deoxyglucose (2DG) uptake in vehicle treated L6 […] at 60 uM dose.; assay type: functional
Mus musculus [7] = assay: Compound was tested in vivo for hypoglycemic activity expressed as Glucose lowering relative to positive control in 6-8 week old C57BL/6J ob/ob mouse at 50 mg/kg; assay type: functional
Mus musculus [8] = assay: In vivo hypoglycemic activity expressed as glucose lowering relative to positive control in 6-8 week old C57BL/6J ob/ob mouse at 5 mg/kg.; assay type: functional
Rattus norvegicus [9] = species on record: Rattus norvegicus; assay: Percentage inhibition of basal stimulated Gluconeogenesis in Isolated Rat Hepatocytes in vitro; assay type: functional, Hepatocyte
Mus musculus [10] = assay: compound was tested in vivo for hypoglycemic activity expressed as Glucose lowering relative to positive control in 6-8 week old C57BL/6J ob/ob mouse at 50 mg/kg; assay type: functional
Rattus norvegicus [11] = species on record: Rattus norvegicus; assay: Percentage inhibition of Glucagon-stimulated Gluconeogenesis in Isolated Rat Hepatocytes in vitro; assay type: functional, Hepatocyte
3T3-L1 [12] = assay: compound was evaluated for their acute effects in vitro by measuring 2-Deoxyglucose (2DG) uptake in vehicle treated 3T3-L1 adipocytes at concentration of 10 micro M; assay type: functional
3T3-L1 [13] = assay: compound was evaluated for their acute effects in vitro by measuring 2-Deoxyglucose (2DG) uptake in vehicle treated 3T3-L1 adipocytes at concentration of 3 micro M; assay type: functional
Mus musculus [14] = assay: compound was tested in vivo for hypoglycemic activity expressed as Glucose lowering relative to positive control in 6-8 week old C57BL/6J ob/ob mouse at 0.1 mg/kg; assay type: functional
Mus musculus [15] = assay: In vivo hypoglycemic activity expressed as glucose lowering relative to positive control in 6-8 week old C57BL/6J ob/ob mouse at 1 mg/kg.; assay type: functional
Mus musculus [16] = assay: compound was tested in vivo for hypoglycemic activity in 6-8 week old C57BL/6J ob/ob mouse at 5 mg/kg; assay type: functional
3T3-L1 [17] = assay: In vitro measurements of 2-Deoxyglucose (2DG) uptake in vehicle treated 3T3-L1 adipocytes at 60 uM dose.; assay type: functional
3T3-L1 [18] = assay: compound was evaluated for their acute effects in vitro by measuring 2-Deoxyglucose (2DG) uptake in vehicle treated 3T3-L1 adipocytes at concentration of 30 micro M; assay type: functional
Mus musculus [19] = assay: compound was tested in vivo for hypoglycemic activity expressed as Glucose lowering relative to positive control in 6-8 week old C57BL/6J ob/ob mouse at 0.5 mg/kg; assay type: functional
Mus musculus [20] = assay: compound was tested in vivo for hypoglycemic activity expressed as Glucose lowering relative to positive control in 6-8 week old C57BL/6J ob/ob mouse at 2.5 mg/kg; assay type: functional
3T3-L1 [21] = assay: compound was evaluated for their acute effects in vitro by measuring 2-Deoxyglucose (2DG) uptake in vehicle treated 3T3-L1 adipocytes at 0.5 uM dose.; assay type: functional
3T3-L1 [22] = assay: Acute effects in vitro by measuring 2-deoxyglucose (2DG) uptake in vehicle treated 3T3-L1 adipocytes at 30 uM dose.; assay type: functional
3T3-L1 [23] = assay: compound was evaluated for their acute effects in vitro by measuring 2-Deoxyglucose (2DG) uptake in vehicle treated 3T3-L1 adipocytes at 1 uM dose.; assay type: functional
3T3-L1 [24] = assay: In vitro by measurements of 2-Deoxyglucose (2DG) uptake in vehicle treated 3T3-L1 adipocytes at 3 uM dose.; assay type: functional
3T3-L1 [25] = assay: Acute effects in vitro by measuring 2-deoxyglucose (2DG) uptake in vehicle treated 3T3-L1 adipocytes at 10 uM dose.; assay type: functional
[26] = Rattus norvegicus, read-out: ED50

Work on CC(C)c1ccc(OC(C)(Cc2cccc(Cl)c2)C(=O)[O-])cc1.[Na+] (stereo not drawn) yielded a Hypoglycemic activity (Mus musculus [1]) of 101%, an ED50 (Rattus norvegicus [2]; [26]) of 5 mg/kg and a Hypoglycemic activity (Mus musculus [3]) of 32%. It also gave a Hypoglycemic activity (Mus musculus [4]) of 47%.
CC(C)c1ccc(OC(Cc2ccc(C(F)(F)F)cc2)C(=O)O)cc1 (stereo not drawn) gave an ED50 (Rattus norvegicus [2]; [26]) of 10 mg/kg, a Basal uptake (3T3-L1 [5]) of 605% and a Hypoglycemic activity (Mus musculus [6]) of 42%. The Basal uptake (L6) was 104%, the Hypoglycemic activity (Mus musculus [7]) was 74% and the Hypoglycemic activity (Mus musculus [8]) was 30%.
Work on CC(C)c1ccc(OC(Cc2ccc(Cl)cc2)C(=O)O)cc1 (stereo not drawn) yielded an ED50 (Rattus norvegicus [2]; [26]) of 10 mg/kg, a Basal uptake (3T3-L1 [5]) of 150% and a Hypoglycemic activity (Mus musculus [6]) of 58%. It also gave an Inhibition (Rattus norvegicus [9]) of 32%, a Hypoglycemic activity (Mus musculus [10]) of 82% and a Hypoglycemic activity (Mus musculus [8]) of 26%. It also gave an Inhibition (Rattus norvegicus [11]) of 20%.
Molecule CCc1ccc(CC(C)(Oc2ccc(C(C)C)cc2)C(=O)[O-])cc1.[Na+] (stereo not drawn) has an ED50 (Rattus norvegicus [2]; [26]) of 0.1 mg/kg, a Basal uptake (3T3-L1 [12]) of 108% and a Basal uptake (3T3-L1 [13]) of 94%. The Hypoglycemic activity (Mus musculus [14]) was 55%, the Hypoglycemic activity (Mus musculus [6]) was 119% and the Hypoglycemic activity (Mus musculus [15]) was 86%. For the same molecule, the “Glucose lowering relative to positive control” value (Mus musculus [16]) was 109%, the Basal uptake (3T3-L1 [17]) was 109% and the Basal uptake (3T3-L1 [18]) was 216%. It also gave a Hypoglycemic activity (Mus musculus [19]) of 76%.
In the case of CC(C)c1ccc(OC(C)(C(=O)O)C(C)c2ccc(Cl)cc2)cc1 (stereo in doubt; 84), the Hypoglycemic activity (Mus musculus [20]) was 62%, the ED50 (Rattus norvegicus [2]) was 2.5 mg/kg and the Basal uptake (3T3-L1 [21]) was 98%. For the same molecule, the Basal uptake (3T3-L1 [22]) was 128%, the Hypoglycemic activity (Mus musculus [6]; 10 mg/kg) was 142% and the Basal uptake (3T3-L1 [23]) was 99%. The Basal uptake (3T3-L1 [24]) was 102%, the Hypoglycemic activity (Mus musculus [15]) was less than 0% and the Basal uptake (3T3-L1 [17]) was 214%. For the same molecule, the Hypoglycemic activity (Mus musculus [8]) was 77% and the Basal uptake (3T3-L1 [25]) was 131%.
